In test [1] the target is GTPγS-bound human HRasG12V / human c-Raf-1 Ras binding domain (RBD) (Homo sapiens (Human), UniProt P01112, G12V). Description: Ras-Raf binding inhibition ELISA. Here is the method:
The in vitro Ras-Raf binding inhibitory activity of the compound of the present invention was evaluated by an ELISA method (Enzyme-Linked ImmunoSorbent Assay) described below.
Ras and Raf used upon the evaluation were purified and activated by the following method.
Using a pGEX6P-1 vector (GE Healthcare), human HRasG12V (full length, 1-189 amino acid residues) and human c-Raf-1 Ras binding domain (RBD) (50-131 amino acid residues) were each allowed to express as a fusion body with glutathione S-transferase (GST) in E. coli.
GST-HRasG12V-expressing cells were subjected to ultrasonication in a buffer {50 mM Tris-HCl pH 7.4, 150 mM NaCl, 5 mM MgCl2, 1 mM ethylenediaminetetraacetic acid (EDTA), 1 mM dithiothreitol (DTT), 10% glycerol, and 1% Triton-X100}, and were then centrifuged at 100,000×g for 30 minutes, so as to collect the supernatant as a Ras protein fraction. HRasG12V in the supernatant was immobilized on a glutathione-agarose resin, and GST was then cleaved with PreScission Protease (GE Healthcare) for purification. The obtained HRasG12V was mixed with guanosine 5′-O-[gamma-thio]triphosphate trisodium salt (GTPTS) of 1000 times higher concentration at 30° C. for 1 hour, and thereafter, 20 mM MgCl2 (final concentration) was added to stop the reaction and collect the GTPgS-loaded HRasG12V as a product.
On the other hand, GST-c-Raf-1 RBD-expressing cells were subjected to ultrasonication in the same buffer as described above, and were then centrifuged at 100,000×g for 30 minutes, so as to collected the supernatant as a GST-c-Raf-1 RBD protein fraction.
The in vitro Ras-Raf binding inhibitory activity of the compound of the present invention was evaluated by an ELISA method described below.
GST-c-Raf-1 RBD diluted with a Ras-Raf binding buffer (50 mM Tris-HCl pH7.4, 150 mM NaCl, 5 mM MgCl2, 1 mM EDTA, and 1% Triton-X100) was added to each well of a glutathione-coated 96-well plate (Thermo Fisher Scientific.), and was incubated at 30° C. for 1 hour, to immobilize Raf on the well. The unbound free Raf was eliminated by washing the well with the Ras-Raf binding buffer three times. Subsequently, GTPTS-bound HRasG12V diluted with the Ras-Raf binding buffer and each compound solution (final DMSO concentration: 10%) were applied to each well, and the resulting mixture was then incubated at 30° C. for 1 hour, so that Ras and Raf were allowed to bind to each other. Thereafter, the plate was washed with the Ras-Raf binding buffer twice, and was then subjected to a blocking treatment at room temperature for 20 minutes, using TBS-Tween {10 mM Tris-HCl pH 7.4, 150 mM NaCl, and 0.05% (w/v) Tween-20}-5% (w/v) bovine serum albumin (BSA). After that, an anti-HRas antibody (C-20, Santa Cruz) or an anti-HRas antibody (259, Santa Cruz), which had been 1000 times diluted with TBS-Tween-5% BSA, was added to the reaction mixture, and incubated at room temperature for 1 hours. After the treatment with the primary antibody, the plate was washed with TBS-Tween-5% BSA three times, and a horseradish peroxidase-labeled secondary antibody against rabbit immunoglobulin G (GE Healthcare) of 1000 times diluted with TBS-Tween-5% BSA, was added to the plate, followed by incubation at room temperature for 1 hour. After the treatment with the secondary antibody, the plate was washed with TBS-Tween-5% BSA three times, and a substrate solution (TMB) was then added to the plate, followed by incubation at room temperature for 15 minutes for coloration. Finally, 2 M H2SO4 was added to stop color development (coloration reaction kit: Nacalai Tesque). The absorbance at 450 nm (OD450) was measured, so that the color intensity was quantified. Inhibition by the test compound was determined according to the following equation: […]
IC50 (*) in which the anti-HRas antibody (259, Santa Cruz) was used
For orientation: In an ELISA, binding on a coated surface is turned into a signal by an enzyme label.

Test [2] relates to promyelocytic leukemia cells HL60 (N-RasQ61L). Description: Cell growth inhibition, suspension cells HL60. The class given is cell-based. The settings on record: Homo sapiens, HL-60; 10 μM (***), 72 hours; read-out: HL-60 (NRasQ61L) % inhibition at 10 μM (***). The protocol:
The cell growth inhibitory activity of the compound of the present invention on human culture cells having active-type mutation in Ras was evaluated by the below-mentioned method using suspension cancer cells {acute lymphoblastic leukemia cells CCRF-CEM (K-RasG12D), promyelocytic leukemia cells HL60 (N-RasQ61L), acute lymphoblastic leukemia cells MOLT4 (N-RasG12C), and small cell lung cancer cells SHP77 (K-RasG12V)} and adherent cancer cells {large bowel cancer cells SW480 (K-RasG12V) and large bowel cancer cell SW620 (K-RasG12V)}.
(Case of suspension cells) The cells suspended in a medium containing 0.5% (v/v) fetal bovine serum (FBS) and each compound solution (final DMSO concentration: 1%) were seeded on a 96-well plate (2 to 4×10^4 cells/well), and the resulting mixture was then cultured at 37° C. in the presence of 5% CO2 for 72 hours.
Thereafter, the number of viable cells was measured using Cell Counting Reagent (Nacalai Tesque) in accordance with the manufacturer's instructions. Inhibition by the test compound was determined according to the following equation: […]

[3] abbreviates: anti-HRas antibody C-20, read-out: ELISA IC50 (μM): 1st Ab_C-20.
The mark [4] stands for this setting: anti-HRas antibody 259 (*), read-out: ELISA IC50 (μM): 1st Ab_259 (*).

Molecules are shown by their SMILES. Like-named read-outs stand apart in the source and are kept apart here.

The values that follow come from patent US20250091994A1, “RAS/RAF BINDING INHIBITOR COMPOUND” (NATIONAL UNIVERSITY CORPORATION KOBE UNIVERSITY, priority 2021, published 2025).

As a reminder, the inhibition is how much of the control response was suppressed. As a reminder, the IC50 is the concentration at which inhibition is half-maximal.

Chain of GTPγS-bound human HRasG12V / human c-Raf-1 Ras binding domain (RBD) (P01112 whole entry G12V, the tested form may be a part): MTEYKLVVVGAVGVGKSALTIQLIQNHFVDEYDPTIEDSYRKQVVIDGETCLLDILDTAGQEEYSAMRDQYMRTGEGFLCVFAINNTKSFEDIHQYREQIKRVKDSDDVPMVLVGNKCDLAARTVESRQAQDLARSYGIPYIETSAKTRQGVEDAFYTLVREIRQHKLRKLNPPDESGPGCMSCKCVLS

In the case of `CC(=O)N1/C(=C\c2ccc(OCC(N)=O)cc2)C(=O)c2ccccc21` [Example 5, 2-(4-((1-acetyl-3-oxoindolin-2-ylidene)methyl)-phenoxy)acetamide], the inhibition at 100 µM in test [1] came to 71%.

In the case of `CC(=O)N1/C(=C\c2cc(-c3cccc4cccnc34)c3cc(C(=O)O)ccc3n2)C(=O)c2ccccc21` [Example 155, (Z)-2-((1-acetyl-3-oxoindolin-2-ylidene)methyl)-[4,8′-biquinoline]-6-carboxylic acid], testing at 1 µM in test [1] gave an inhibition of 59.3%. Besides, the IC50 in test [1] (setting [3]) was found to be 0.7 µM.

`CC(=O)N1/C(=C\c2cc(-c3cccc(C(=O)O)c3)c3cc(C(=O)N4CCOCC4)ccc3n2)C(=O)c2ccccc21` [Example 175, (Z)-3-(2-((1-acetyl-3-oxoindolin-2-ylidene)methyl)-6-(morpholine-4-carbonyl)quinolin-4-yl)benzoic acid] displayed an inhibition at 1 µM in test [1] of 67.2%. In addition, in test [1] (setting [3]), the IC50 came to 0.5 µM.

Take `CC(=O)N1/C(=C\c2ccc3cc(/C=C/C(=O)N4CCN(C5COC5)CC4)ccc3n2)C(=O)c2ccccc21` [Example 78]: the inhibition at 10 µM in test [2] is 92%. Moreover, the IC50 in test [1] (setting [4]) amounted to 0.93 µM.

In test [1], `COc1cc(/C=C2/C(=O)c3ccccc3N2C(C)=O)ccc1O` [Example 3, 1-acetyl-2-(4-hydroxy-3-meth-oxybenzylidene)-indolin-3-one] had an inhibition at 100 µM of 57%.

As for `CC(=O)N1/C(=C\c2ccc3cc(CNC4C[C@@H](C)O[C@@H](C)C4)ccc3n2)C(=O)c2ccccc21` (mixture of isomers) [Example 136, (Z)-1-acetyl-2-((6-((((2SR,6RS)-2,6-dimethyltetra-hydro-2H-pyran-4-yl)amino)meth-yl)quinolin-2-yl)-methylene)indolin-3-one], in test [1] (setting [4]), the IC50 turned out to be 1.7 µM.

In turn, `CC(=O)N1/C(=C\c2cc(-c3ccccc3C(=O)O)c3cc(C(=O)N4CCOCC4)ccc3n2)C(=O)c2ccccc21` [Example 176, (Z)-2-(2-((1-acetyl-3-oxoindolin-2-ylidene)methyl)-6-(morpholine-4-carbonyl)quinolin-4-yl)benzoic acid] came in with an inhibition at 1 µM in test [1] of 51.1%. Besides, the IC50 in test [1] (setting [3]) came to 1 µM.

On to `CC(=O)N1/C(=C\c2ccc(OCC(N)=O)c(OC(C)C)c2)C(=O)c2ccccc21` [Example 30, 2-(4-((1-acetyl-3-oxoindolin-2-ylidene)methyl)-2-isopropoxy-phenoxy)acet-amide], for which, in test [1], the inhibition at 100 µM came to 63%.

In the case of `CC(=O)N1/C(=C\c2ccc3cc(CN4CCN(C5COC5)CC4)ccc3n2)C(=O)c2ccccc21` [Example 74, (Z)-1-acetyl-2-((6-((4-(oxetan-3-yl)piperazin-1-yl)methyl)quinolin-2-yl)methylene)-indolin-3-one], the inhibition at 10 µM in test [2] is 99%. Besides, in test [1] (setting [4]), the IC50 was found to be 0.71 µM.

For the compound `CC(=O)N1/C(=C\c2ccc3oc(C(=O)N4CCOCC4)cc3n2)C(=O)c2ccccc21` [Example 72, (Z)-1-acetyl-2-((2-(morpholine-4-carbonyl)furo [3,2-b]pyridin-5-yl)methylene)-indolin-3-one], the half-inhibitory concentration (IC50) in test [1] (setting [4]) was found to be 3.6 µM.

For the compound `CC(=O)N1/C(=C\c2nc3ccc(C(=O)N4CC(C)OC(C)C4)cc3s2)C(=O)c2ccccc21` (stereo not drawn) [Example 100, (Z)-1-acetyl-2-((6-(2,6-dimethyl-morpholine-4-carbonyl)benzo [d]thiazol-2-yl)-methylene)indolin-3-one], the inhibition at 10 µM in test [2] stood at 87%. In test [1] (setting [4]), the IC50 was 0.77 µM.

In test [1], `CC(=O)N1/C(=C\c2cc(-c3nc[nH]n3)c3cc(C(=O)N4CCOCC4)ccc3n2)C(=O)c2ccccc21` (racemic) [Example 212, 1-acetyl-2-((6-(morpholine-4-carbonyl)-4-(1H-1,2,4-triazol-3-yl)-quinolin-2-yl)-methylene)indolin-3-one] had an inhibition at 1 µM of 59.9%. In addition, the IC50 in test [1] (setting [3]) was 0.8 µM.

In turn, `CC(=O)N1/C(=C\c2cc(-c3ccc(C(=O)O)cc3)c3cc(C(=O)N4CCOCC4)ccc3n2)C(=O)c2ccccc21` [Example 174, (Z)-4-(2-((1-acetyl-3-oxoindolin-2-ylidene)methyl)-6-(morpholine-4-carbonyl)quinolin-4-yl)benzoic acid] showed an inhibition at 1 µM in test [1] of 70.1%. In test [1] (setting [3]), the IC50 was determined as 0.5 µM.

Take `CC(=O)N1/C(=C\c2nc3ccc(CNC4CCOCC4)cc3s2)C(=O)c2ccccc21` [Example 134]: in test [1] (setting [4]), the IC50 came out at 1.1 µM.

Take `CC(=O)N1/C(=C/c2nc3ccc(CNC4CCOCC4)cc3s2)C(=O)c2ccccc21` [Example 135, (E)-1-acetyl-2-((6-(((tetrahydro-2H-pyran-4-yl)-amino)methyl)-benzo[d]thiazol-2-yl)methylene)-indolin-3-one]: the inhibition at 10 µM in test [2] stood at 98%.

`COc1cc(/C=C2/C(=O)c3ccccc3N2C(C)=O)ccc1OCCN1CCOCC1` [Example 7, (Z)-1-acetyl-2-(3-methoxy-4-(2-morpholinoethoxy)-benzylidene)indolin-3-one] came in with an inhibition at 100 µM in test [1] of 83%.

In test [1], `COc1cc(/C=C2/C(=O)c3ccccc3N2C(C)=O)ccc1OCCOc1ccccc1` [Example 12, 1-acetyl-2-(3-methoxy-4-(2-phenoxyethoxy)-benzylidene)-indolin-3-one] yielded an inhibition at 100 µM of 49%.

As for `CC(=O)N1/C(=C\c2ccc(OCC(=O)N3CCOCC3)c(F)n2)C(=O)c2ccccc21` [Example 32, (Z)-1-acetyl-2-((6-fluoro-5-(2-morpholino-2-oxoethoxy)-pyridin-2-yl)-methylene)-indolin-3-one], the IC50 in test [1] (setting [3]) was 14 µM.

With `CC(=O)N1/C(=C\c2ccc3cc(CNC4CC(C)O[C@H](C)C4)ccc3n2)C(=O)c2ccccc21` (mixture of isomers) [Example 137, (Z)-1-acetyl-2-((6-((((2SR,6SR)-2,6-dimethyltetra-hydro-2H-pyran-4-yl)amino)meth-yl)quinolin-2-yl)-methylene)indolin-3-one], the IC50 in test [1] (setting [4]) was found to be 1.3 µM.

For `CC(=O)N1/C(=C\c2cc(-c3cccnn3)c3cc(C(=O)N4CCOCC4)ccc3n2)C(=O)c2ccccc21` [Example 191, (Z)-1-acetyl-2-((6-(morpholine-4-carbonyl)-4-(pyridazin-3-yl)-quinolin-2-yl)-methylene)indolin-3-one], testing at 1 µM in test [1] gave an inhibition of 49.2%. Further, in test [1] (setting [3]), the IC50 worked out at 1.1 µM.

Take `CC(=O)N1/C(=C/c2nc3ccc(C(=O)N4CC(C)OC(C)C4)cc3s2)C(=O)c2ccccc21` (stereo not drawn) [Example 101, (E)-1-acetyl-2-((6-(2,6-dimethyl-morpholine-4-carbonyl)benzo [d]thiazol-2-yl)-methylene)indolin-3-one]: in test [2], the inhibition at 10 µM was 87%.
